This is an account of results in PMC5962679 (Frontiers in Cellular and Infection Microbiology, 2018).

Ends that are not written are not given here.

By IC50 is commonly meant the concentration needed to halve the response being measured.

Common to all, as to test: biochemical
Common to all, as to type: binding
Details in all cases: for inhibition at 250 µM: 24 h, read-out: Binding percentage

The target of test [1] is HLA-DRB1*1101 (Homo sapiens, UniProt P01903+P01911, A100R/A169T/A87E/I96F/K41T/L162R/M171V/P40S/Q125H/Q178H/Q39Y/Q99D/R42S/S66Y/T262R/V115G/W38E).
Chain of HLA-DRB1*1101 (P01903 26-254 limits assumed, other chains not shown): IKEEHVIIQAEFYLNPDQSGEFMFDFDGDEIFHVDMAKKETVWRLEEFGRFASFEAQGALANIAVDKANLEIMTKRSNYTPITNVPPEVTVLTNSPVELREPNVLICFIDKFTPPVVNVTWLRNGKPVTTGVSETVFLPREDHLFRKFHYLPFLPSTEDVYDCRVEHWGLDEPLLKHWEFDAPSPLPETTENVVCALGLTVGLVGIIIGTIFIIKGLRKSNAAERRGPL
Test [2] deals with HLA-DRB1*0701 (Homo sapiens, UniProt P01903+P01911, A100R/A102G/A103Q/D57E/D86V/E43K/F76Y/K127E/L162R/M171V/P40G/Q125H/Q99D/R33Q/R42Y/R54Q/S133A/S66F/T210M/V115G/Y107V/Y59L/Y89S).
The target in test [3] is HLA-DRB1*1302 (Homo sapiens, UniProt P01903+P01911, A100E/A169T/K41T/L162R/M171V/P40S/Q125H/Q178H/Q39Y/Q99D/R42S/S66N/T262R/V115G/W38E/Y61H).
Chain of HLA-DRB1*1302 (P01903 26-254 limits assumed, other chains not shown): as above
In test [4] the target is T1, HLA-DRB1*0401 (Homo sapiens, UniProt P01903+P01911, A100K/A169T/F76Y/I96L/K127E/L162R/M171V/N62H/P40V/Q125Y/R42H/S133A/S149N/S66Y/V115G/V209L/W38E).
T1 construct: homozygous lymphoblastoid B-cell lines (International Histocompatibility Working Group); host or cells: human HLA-DRB1*0401 homozygous lymphoblastoid B-cell line

Consider LFYVNLFIMSSLSRK [compound 39152], for which the concentration for half-maximal inhibition (IC50) in test [1] is 1.9 µM; in test [3], 8 µM; in test [4], 2.8 µM. The inhibition at 250 µM in test [1] stood at 91.8%; in test [2], 11%; in test [3], 94.7%; in test [4] it was 65.8%.
Consider LKFIVRGNNLKFLNN [compound 39154], for which the inhibition at 250 µM amounted to 24.9% in test [1], 43.7% in test [2], 90.1% in test [3] and 22.2% in test [4]. In test [3], this sequence registered a concentration for half-maximal inhibition (IC50) of 6.5 µM.
On to MKLLQHIPANLLENI [compound 39153], for which the IC50 in test [1] was found to be 52.1 µM; in test [2], 7.5 µM; in test [3] it was 10.7 µM; in test [4], 57 µM. Moreover, the inhibition at 250 µM in test [1] came to 72.7%; in test [2], 85.4%; in test [3], 91.9%; in test [4], 61.2%.
For RGPVNYHFSNYMNLD [compound 39047], the inhibition at 250 µM in test [1] was 0%; in test [2] it was 90.4%; in test [3], 37.8%; in test [4] it was 59.8%. Moreover, the IC50 was 6 µM in test [2] and 54.5 µM in test [4].
